19 molecules from patent US20230159532A1, “PARATHYROID HORMONE (PTH) RECEPTOR ANTAGONISTS AND USES THEREOF” (Crinetics Pharmaceuticals, Inc., priority 2021, published 2023) can be followed below.

The target in this experiment is T1, human PTHR1 receptor (Homo sapiens, UniProt Q03431).
T1 construct: purchased Eurofins HTS030M
T1 sequence (Q03431 27-593): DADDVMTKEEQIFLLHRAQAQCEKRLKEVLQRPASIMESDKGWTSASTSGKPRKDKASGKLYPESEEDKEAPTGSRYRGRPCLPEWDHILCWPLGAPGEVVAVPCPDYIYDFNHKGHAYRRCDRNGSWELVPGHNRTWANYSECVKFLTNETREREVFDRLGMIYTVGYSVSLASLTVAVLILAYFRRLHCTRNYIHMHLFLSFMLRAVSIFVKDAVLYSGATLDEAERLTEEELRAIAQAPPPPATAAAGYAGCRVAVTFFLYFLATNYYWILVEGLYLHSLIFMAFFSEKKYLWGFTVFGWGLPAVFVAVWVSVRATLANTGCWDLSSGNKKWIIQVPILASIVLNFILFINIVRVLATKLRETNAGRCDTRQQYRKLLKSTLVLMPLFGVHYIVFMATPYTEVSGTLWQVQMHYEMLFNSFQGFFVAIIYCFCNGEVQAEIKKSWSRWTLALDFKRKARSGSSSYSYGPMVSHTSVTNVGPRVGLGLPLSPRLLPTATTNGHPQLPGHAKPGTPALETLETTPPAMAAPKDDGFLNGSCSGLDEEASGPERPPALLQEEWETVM
The experiment can be described thus: Competitive antagonist binding assay for hPTH-R1 (radioactive competition binding, SPA beads). As to conditions: human PTHR1 membranes, [125I]-[Nle8,18,Tyr34]-PTH(1-34) 0.2 nM, 90 minutes at room temperature; read-out: hPTHR1 Ki. On the procedure:
Competitive Antagonist Binding Assay Protocol for hPTH-R1 Antagonists:
The inhibition of binding to the human PTHR1 receptor was measured in a radioactive competition binding assay using the radiolabeled [^125I]-[NLE^8,18, TYR^34]-parathyroid hormone (1-34) ligand (PerkinElmer Cat# NEX244, custom synthesis) as the probe ligand for the receptor. Briefly, membranes from cells expressing the human PTHR1 (Eurofins Cat# HTS030M) were incubated with SPA beads (PerkinElmer Cat# RPNQ0001) in binding assay buffer [50 mM HEPES (Biopioneer Cat# C0113), 5 mM MgCl2 (Sigma Cat# M8266), 10 mM CaCl2 (Fisher Scientific Cat# BP510), 0.1% BSA (Fisher Scientific Cat# BP1600), 0.01% TritonX-100 (Bio-Rad Cat#161-0407), and protease inhibitors (Pierce Cat# A32963); pH 7.4]. Membranes bound to SPA bead were treated with various dilutions of compounds (final concentrations typically 0-10,000 nM), and 0.2 nM radiolabeled ligand in 96-well isoplates (PerkinElmer Cat#6005040) for 90 minutes at room temperature. The radioactive signal was detected using a MicroBetaTriLux 1450 LSC (PerkinElmer). All data manipulations to determine the Ki values were performed using GraphPad v8 (GraphPad, San Diego Calif.).

As for `CCN1C(=O)N(c2c(F)cc(NCCNC3CCOC3)cc2F)c2cc(Cl)ccc2-c2cc(F)cnc21` (stereo not shown) [1-20, 13-chloro-10-[2,6-difluoro-4-({2-[(oxolan-3-yl)amino]ethyl}amino)phenyl]-8-ethyl-4-fluoro-6,8,10-triazatricyclo[9.4.0.0^2,7]pentadeca-1(11),2(7),3,5,12,14-hexaen-9-one], the Ki was under 100 nM.

In the case of `CCN1C(=O)N(c2c(F)cc(NCCNC)cc2F)c2cccc(C)c2-c2cc(Cl)cnc21` [1-21, 4-chloro-10-(2,6-difluoro-4-{[2-(methylamino)ethyl]amino}phenyl)-8-ethyl-15-methyl-6,8,10-triazatricyclo[9.4.0.0^2,7]pentadeca-1(11),2(7),3,5,12,14-hexaen-9-one], the Ki is under 100 nM.

As to `CCN1C(=O)N(c2c(F)cc(NCCN)cc2F)c2cc(Cl)ccc2-c2cc(C)cnc21` [1-22, 10-{4-[(2-aminoethyl)amino]-2,6-difluorophenyl}-13-chloro-8-ethyl-4-methyl-6,8,10-triazatricyclo[9.4.0.0^2,7]pentadeca-1(11),2(7),3,5,12,14-hexaen-9-one], the Ki is under 100 nM.

Take `CCN1C(=O)N(c2c(F)cc(NCCNC)cc2F)c2cc(Cl)cc(C)c2-c2cccnc21` [1-23, 13-chloro-10-(2,6-difluoro-4-{[2-(methylamino)ethyl]amino}phenyl)-8-ethyl-15-methyl-6,8,10-triazatricyclo[9.4.0.0^2,7]pentadeca-1(11),2(7),3,5,12,14-hexaen-9-one]: the Ki was under 100 nM.

For the molecule `CCN1C(=O)N(c2c(F)cc(NCCNC)cc2F)c2cc(Cl)ccc2-c2cc(C3CC3)cnc21` [1-24, 13-chloro-4-cyclopropyl-10-(2,6-difluoro-4-{[2-(methylamino)ethyl]amino}phenyl)-8-ethyl-6,8,10-triazatricyclo[9.4.0.0^2,7]pentadeca-1(11),2(7),3,5,12,14-hexaen-9-one], the Ki was under 100 nM.

Consider `CCN1C(=O)N(c2c(F)cc(NCCNCCCC(=O)O)cc2F)c2cc(Cl)ccc2-c2cc(C)cnc21` [1-25, 4-({2-[(4-{13-chloro-8-ethyl-4-methyl-9-oxo-6,8,10-triazatricyclo[9.4.0.0^2,7]pentadeca-1(11),2(7),3,5,12,14-hexaen-10-yl}-3,5-difluorophenyl)amino]ethyl}amino)butanoic acid], for which the Ki was under 100 nM.

On to `CCN1C(=O)N(c2c(F)cc(NCCNC3CCOCC3)cc2F)c2cc(Cl)ccc2-c2cc(C)cnc21` [1-27, 13-chloro-10-[2,6-difluoro-4-({2-[(oxan-4-yl)amino]ethyl}amino)phenyl]-8-ethyl-4-methyl-6,8,10-triazatricyclo[9.4.0.0^2,7]pentadeca-1(11),2(7),3,5,12,14-hexaen-9-one], for which the Ki was under 100 nM.

`CCN1C(=O)N(c2c(F)cc(NCCNC3CCOC3)cc2F)c2cc(Cl)ccc2-c2cc(C)cnc21` (stereo not shown) [1-28, 13-chloro-10-[2,6-difluoro-4-({2-[(oxolan-3-yl)amino]ethyl}amino)phenyl]-8-ethyl-4-methyl-6,8,10-triazatricyclo[9.4.0.0^2,7]pentadeca-1(11),2(7),3,5,12,14-hexaen-9-one]: the Ki is under 100 nM.

In the case of `CNCCNc1cc(F)c(N2C(=O)N(C)c3ncc(Cl)cc3-c3ccc(Cl)cc32)c(F)c1` [1-30, 4,13-dichloro-10-(2,6-difluoro-4-{[2-(methylamino)ethyl]amino}phenyl)-8-methyl-6,8,10-triazatricyclo[9.4.0.0^2,7]pentadeca-1(11),2(7),3,5,12,14-hexaen-9-one], the Ki is under 100 nM.

For `CCN1C(=O)N(c2c(F)cc(NCCNCCO)cc2F)c2cc(Cl)cc(C)c2-c2cc(F)cnc21` [1-31, 13-chloro-10-[2,6-difluoro-4-({2-[(2-hydroxyethyl)amino]ethyl}amino)phenyl]-8-ethyl-4-fluoro-15-methyl-6,8,10-triazatricyclo[9.4.0.0^2,7]pentadeca-1(11),2(7),3,5,12,14-hexaen-9-one], the Ki was under 100 nM.

As for `CCN1C(=O)N(c2c(F)cc(NCCNC)cc2F)c2cc(Cl)cc(C)c2-c2cc(F)cnc21` [1-32, 13-chloro-10-(2,6-difluoro-4-{[2-(methylamino)ethyl]amino}phenyl)-8-ethyl-4-fluoro-15-methyl-6,8,10-triazatricyclo[9.4.0.0^2,7]pentadeca-1(11),2(7),3,5,12,14-hexaen-9-one], the inhibition constant (Ki) was under 100 nM.

Consider `CN1C(=O)N(c2c(F)cc(NCCN)cc2F)c2cc(Cl)ccc2-c2cc(Cl)cnc21` [1-33, 10-{4-[(2-aminoethyl)amino]-2,6-difluorophenyl}-4,13-dichloro-8-methyl-6,8,10-triazatricyclo[9.4.0.0^2,7]pentadeca-1(11),2(7),3,5,12,14-hexaen-9-one], for which the Ki is under 100 nM.

With `CN1C(=O)N(c2c(F)cc(NCCNCCO)cc2F)c2cc(Cl)ccc2-c2cc(Cl)cnc21` [1-34, 4,13-dichloro-10-[2,6-difluoro-4-({2-[(2-hydroxyethyl)amino]ethyl}amino)phenyl]-8-methyl-6,8,10-triazatricyclo[9.4.0.0^2,7]pentadeca-1(11),2(7),3,5,12,14-hexaen-9-one], the Ki was under 100 nM.

For the molecule `CN1C(=O)N(c2c(F)cc(NCCNC3CCOCC3)cc2F)c2cc(Cl)ccc2-c2cc(Cl)cnc21` [1-35, 4,13-dichloro-10-[2,6-difluoro-4-({2-[(oxan-4-yl)amino]ethyl}amino)phenyl]-8-methyl-6,8,10-triazatricyclo[9.4.0.0^2,7]pentadeca-1(11),2(7),3,5,12,14-hexaen-9-one], the Ki is under 100 nM.

For `CCN1C(=O)N(c2c(F)cc(NCCNC)cc2F)c2cc(Cl)cc(C)c2-c2cc(Cl)cnc21` [1-36, 4,13-dichloro-10-(2,6-difluoro-4-{[2-(methylamino)ethyl]amino}phenyl)-8-ethyl-15-methyl-6,8,10-triazatricyclo[9.4.0.0^2,7]pentadeca-1(11),2(7),3,5,12,14-hexaen-9-one], the Ki was under 100 nM.

With `CCN1C(=O)N(c2c(F)cc(NCCNCCO)cc2F)c2cc(Cl)cc(Cl)c2-c2cc(F)cnc21` [1-37, 13,15-dichloro-10-[2,6-difluoro-4-({2-[(2-hydroxyethyl)amino]ethyl}amino)phenyl]-8-ethyl-4-fluoro-6,8,10-triazatricyclo[9.4.0.0^2,7]pentadeca-1(11),2(7),3,5,12,14-hexaen-9-one], the Ki is under 100 nM.

For the molecule `CCN1C(=O)N(c2c(F)cc(NCCNC)cc2F)c2cc(Cl)cc(Cl)c2-c2cc(F)cnc21` [1-38, 13,15-dichloro-10-(2,6-difluoro-4-{[2-(methylamino)ethyl]amino}phenyl)-8-ethyl-4-fluoro-6,8,10-triazatricyclo[9.4.0.0^2,7]pentadeca-1(11),2(7),3,5,12,14-hexaen-9-one], the Ki is under 100 nM.

Consider `CNCCNc1cc(F)c(N2C(=O)N(C(C)C)c3ncc(Cl)cc3-c3ccc(Cl)cc32)c(F)c1` [1-39, 4,13-dichloro-10-(2,6-difluoro-4-{[2-(methylamino)ethyl]amino}phenyl)-8-(propan-2-yl)-6,8,10-triazatricyclo[9.4.0.0^2,7]pentadeca-1(11),2(7),3,5,12,14-hexaen-9-one], for which the Ki is under 100 nM.

For the molecule `CCCN1C(=O)N(c2c(F)cc(NCCNC)cc2F)c2cc(Cl)ccc2-c2cc(Cl)cnc21` [1-40, 4,13-dichloro-10-(2,6-difluoro-4-{[2-(methylamino)ethyl]amino}phenyl)-8-propyl-6,8,10-triazatricyclo[9.4.0.0^2,7]pentadeca-1(11),2(7),3,5,12,14-hexaen-9-one], the Ki is under 100 nM.

As usually defined, the Ki is the equilibrium dissociation constant of an inhibitor or competing ligand from its target.
